Assay results published in patent US20050043363A1, “Efficient microbial preparation of capravirine metabolites M4 and M5” (AGOURON PHARMACEUTICALS, INC., priority 2003, published 2005).

Tests used:
[1] = Cytotoxicity determined measuring XTT dye reduction; format: cell-based; settings: compound-treated cells, 50% cytotoxicity concentration, uninfected cells
Description: The term “CC50”, as used herein, means the 50% cytotoxicity concentration, which is calculated as the concentration of compound that decreases the viability of uninfected, compound-treated cells to 50% of that of uninfected, compound-free cells.

[2] = system: HIV; assay: Antiviral activity determined measuring XTT dye reduction; format: cell-based; settings: for EC50 / EC90: Human immunodeficiency virus 1, antiviral activity, XTT dye reduction, mean of 2-4 experiments (M4, M5) or 9 experiments (CPV)
From the text: The term “EC50”, as used herein, means the statistically derived concentration of a toxicant that can be expected to cause a defined non-lethal effect in 50% of a given population of organisms under defined conditions.
The term “EC90”, as used herein, means the statistically derived concentration of a toxicant that can be expected to cause a defined non-lethal effect in 90% of a given population of organisms under defined conditions.

SMILES | CC50 [1] [nM] | TI (Therapeutic index = CC50/EC50) [2] | EC50 [2] [nM] | EC90 [2] [nM]
CC(C)c1nc(COC(N)=O)n(Cc2ccncc2)c1Sc1cc(Cl)cc(Cl)c1 [CPV, 2-carbamoyloxymethyl-5-(3,5-dichlorophenyl)thio-4-isopropyl-1-(4-pyridyl)methyl-1H-imidazole, reference compound] | 69000 | 45,667 | 1.5 | 3.2
CC(C)(O)c1nc(COC(N)=O)n(Cc2ccncc2)c1Sc1cc(Cl)cc(Cl)c1 [M4] | > 320000 | >6,737 | 48 | 110
CC(CO)c1nc(COC(N)=O)n(Cc2ccncc2)c1Sc1cc(Cl)cc(Cl)c1 (stereo not drawn) [M5] | > 320000 | >6,882 | 47 | 110
